Data published in paper PMC10932284 (International Journal of Molecular Sciences, 2024).

system: M. tuberculosis strain susceptible to rifampicin and isoniazid; test: tuberculostatic activity assay, strain susceptible to rifampicin and isoniazid; assay type: cell-based, Mycobacterium tuberculosis; details: 1 µg/mL

Row | SMILES | growth inhibition of mycobacteria (in words)
1 | Cc1ccc2c(c1)S(=O)(=O)NC(=O)N2 [2c] | active
2 | Cc1cc(C)c2c(c1)S(=O)(=O)NC(=O)N2 [2d] | active
3 | O=C1Nc2ccc(F)cc2S(=O)(=O)N1 [2h] | active
4 | CC(=O)Nc1nnc(S(N)(=O)=O)s1 [AAZ, acetazolamide, reference compound] | active

same assay, conditions: 1 µg/mL in Lowenstein Jensen medium, 28 days, 37 °C

Row | SMILES | number of M. tuberculosis colonies/standard inoculum volume (0.2 mL)
5 | Cc1ccc2c(c1)S(=O)(=O)NC(=O)N2 [2c] | 0 colonies
6 | Cc1cc(C)c2c(c1)S(=O)(=O)NC(=O)N2 [2d] | 0 colonies
7 | O=C1Nc2ccc(F)cc2S(=O)(=O)N1 [2h] | 0 colonies
8 | O=C1Nc2ccc(O)cc2S(=O)(=O)N1 [2t] | 30–100 colonies
9 | CC(=O)Nc1nnc(S(N)(=O)=O)s1 [AAZ, acetazolamide, reference compound] | 0 colonies
10 | CC(=O)/N=c1/sc(S(N)(=O)=O)nn1C [MTZ, reference compound] | 30–100 colonies

same assay, conditions: 2 µg/mL in Lowenstein Jensen medium, 28 days, 37 °C

Row | SMILES | number of M. tuberculosis colonies/standard inoculum volume (0.2 mL) [colonies]
11 | O=C1Nc2ccccc2S(=O)(=O)N1 [2a] | 0
12 | Cc1ccc2c(c1)S(=O)(=O)NC(=O)N2 [2c] | 0
13 | Cc1cc(C)c2c(c1)S(=O)(=O)NC(=O)N2 [2d] | 0
14 | O=C1Nc2ccc(F)cc2S(=O)(=O)N1 [2h] | 0
15 | O=C1Nc2ccc(O)cc2S(=O)(=O)N1 [2t] | 0
16 | CC(=O)Nc1nnc(S(N)(=O)=O)s1 [AAZ, acetazolamide, reference compound] | 0
17 | CC(=O)/N=c1/sc(S(N)(=O)=O)nn1C [MTZ, reference compound] | 0

biological target: T1, MtCA1 (Mycobacterium tuberculosis, UniProt P9WPJ7); test: biochemical; details: not given
T1 construct: made in house
T1 sequence (P9WPJ7 whole entry): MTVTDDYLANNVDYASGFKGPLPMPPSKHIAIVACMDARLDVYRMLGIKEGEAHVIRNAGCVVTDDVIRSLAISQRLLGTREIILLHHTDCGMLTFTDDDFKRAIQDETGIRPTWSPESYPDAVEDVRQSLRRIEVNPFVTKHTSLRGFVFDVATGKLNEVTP

Row | SMILES | Ki [nM]
18 | Cc1ccc2c(c1)S(=O)(=O)NC(=O)N2 [2c] | 1050 ± 65
19 | O=C1Nc2ccc(C(=O)O)cc2S(=O)(=O)N1 [2s] | 4870 ± 315

same assay, conditions: ratio of Ki values

Row | SMILES | Selectivity Index (SI) hCA II/MtCA1
20 | O=C1Nc2ccccc2S(=O)(=O)N1 [2a] | 0.1
21 | Cc1cccc2c1NC(=O)NS2(=O)=O [2b] | 0.1
22 | Cc1ccc2c(c1)S(=O)(=O)NC(=O)N2 [2c] | 0.8
23 | Cc1ccc(C)c2c1NC(=O)NS2(=O)=O [2e] | <0.2
24 | Cc1cc(C)c2c(c1)NC(=O)NS2(=O)=O [2f] | <0.3
25 | O=C1Nc2ccc(C(=O)O)cc2S(=O)(=O)N1 [2s] | 1.4
26 | O=C1Nc2ccc(O)cc2S(=O)(=O)N1 [2t] | 1.3

same assay, conditions: stopped-flow CO2 hydrase assay, mean from three assays; read-out: Ki MtCA1

Row | SMILES | Ki [nM]
27 | O=C1Nc2ccccc2S(=O)(=O)N1 [2a] | 1680 ± 93
28 | Cc1cccc2c1NC(=O)NS2(=O)=O [2b] | 1460 ± 101
29 | Cc1cc(C)c2c(c1)S(=O)(=O)NC(=O)N2 [2d] | 934 ± 78
30 | Cc1ccc(C)c2c1NC(=O)NS2(=O)=O [2e] | > 10000
31 | Cc1cc(C)c2c(c1)NC(=O)NS2(=O)=O [2f] | > 10000
32 | O=C1Nc2ccc(F)cc2S(=O)(=O)N1 [2h] | 1830 ± 137
33 | O=C1Nc2ccc(O)cc2S(=O)(=O)N1 [2t] | 2390 ± 126

biological target: hCA I; test: not given; set-up: method as in PMID 31794211; details: stopped-flow CO2 hydrase assay; cited from earlier work

Row | SMILES | Ki [nM]
34 | O=C1Nc2ccccc2S(=O)(=O)N1 [2a] | 866
35 | Cc1cccc2c1NC(=O)NS2(=O)=O [2b] | 969
36 | Cc1ccc2c(c1)S(=O)(=O)NC(=O)N2 [2c] | 1070
37 | Cc1cc(C)c2c(c1)S(=O)(=O)NC(=O)N2 [2d] | 1270
38 | Cc1ccc(C)c2c1NC(=O)NS2(=O)=O [2e] | 2540
39 | Cc1cc(C)c2c(c1)NC(=O)NS2(=O)=O [2f] | 1920
40 | O=C1Nc2ccc(F)cc2S(=O)(=O)N1 [2h] | 1290
41 | O=C1Nc2ccc(C(=O)O)cc2S(=O)(=O)N1 [2s] | > 10000
42 | O=C1Nc2ccc(O)cc2S(=O)(=O)N1 [2t] | 1890

biological target: T2, MtCA2 (Mycobacterium tuberculosis, UniProt P9WPJ9); test: stopped-flow CO2 hydrase assay, MtCA2; assay type: biochemical; details: not given
T2 construct: made in house
Procedure: BTDs 2a-2t were submitted to a stopped-flow CO2 hydrase kinetic assay to evaluate the inhibitory profile against the mycobacterial β-CAs MtCA1, MtCA2, MtCA3 (Table 1), in comparison to the inhibitory effect on hCA I and II, which were selected due to their abundance in the human organism and thus off-target in this study.
A stopped-flow instrument from Applied Photophysics was utilized to assess the inhibition of CA-catalyzed CO2 hydration activity. […] The assay employed 20 mM HEPES (pH 8.3) as a buffer and 20 mM Na2SO4 to maintain constant ionic strength. The investigation focused on the initial rates of the CA-catalyzed CO2 hydration reaction over a duration of 10–100 s. CO2 concentrations ranging from 1.7 to 17 mM were employed to determine kinetic parameters and inhibition constants. For each inhibitor, a minimum of six traces of the initial 5–10% of the reaction were utilized to determine the initial velocity. Uncatalyzed rates were determined in a similar manner and subtracted from the overall observed rates. Inhibitor stock solutions (0.1 mM) were initially prepared in distilled–deionized water, followed by subsequent dilutions up to 0.01 nM with the assay buffer. To allow for the formation of the E-I complex, inhibitor and enzyme solutions were preincubated together for 15 min at room temperature before the assay. The inhibition constants were derived through nonlinear least-squares methods using PRISM and the Cheng–Prusoff equation, as previously reported, representing the mean from at least three different determinations.

T2 sequence (P9WPJ9 whole entry, looked up): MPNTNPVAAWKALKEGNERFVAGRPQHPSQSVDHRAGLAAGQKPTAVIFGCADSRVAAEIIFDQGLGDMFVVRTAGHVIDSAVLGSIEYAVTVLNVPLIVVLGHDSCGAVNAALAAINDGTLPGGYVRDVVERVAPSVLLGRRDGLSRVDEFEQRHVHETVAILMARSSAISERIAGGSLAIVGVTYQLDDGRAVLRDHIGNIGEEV

Row | SMILES | Ki [nM]
43 | O=C1Nc2ccccc2S(=O)(=O)N1 [2a] | 68.6 ± 3.1
44 | Cc1cccc2c1NC(=O)NS2(=O)=O [2b] | 58.5 ± 1.7
45 | Cc1ccc2c(c1)S(=O)(=O)NC(=O)N2 [2c] | 41.3 ± 2
46 | Cc1ccc(C)c2c1NC(=O)NS2(=O)=O [2e] | 2370 ± 167
47 | Cc1cc(C)c2c(c1)NC(=O)NS2(=O)=O [2f] | 4480 ± 277
48 | O=C1Nc2ccc(F)cc2S(=O)(=O)N1 [2h] | 42.5 ± 1.6
49 | O=C1Nc2ccc(C(=O)O)cc2S(=O)(=O)N1 [2s] | 223 ± 18
50 | O=C1Nc2ccc(O)cc2S(=O)(=O)N1 [2t] | 58.4 ± 4.1

same assay, conditions: ratio of Ki values

Row | SMILES | Selectivity Index (SI) hCA II/MtCA2
51 | O=C1Nc2ccccc2S(=O)(=O)N1 [2a] | 2.2
52 | Cc1cccc2c1NC(=O)NS2(=O)=O [2b] | 2.5
53 | Cc1ccc2c(c1)S(=O)(=O)NC(=O)N2 [2c] | 21.1
54 | Cc1ccc(C)c2c1NC(=O)NS2(=O)=O [2e] | 0.9
55 | Cc1cc(C)c2c(c1)NC(=O)NS2(=O)=O [2f] | 0.7
56 | O=C1Nc2ccc(C(=O)O)cc2S(=O)(=O)N1 [2s] | 30.4
57 | O=C1Nc2ccc(O)cc2S(=O)(=O)N1 [2t] | 51.8

biological target: hCA II; test: not given; set-up: method as in PMID 31794211; details: stopped-flow CO2 hydrase assay; cited from earlier work

Row | SMILES | Ki [nM]
58 | O=C1Nc2ccccc2S(=O)(=O)N1 [2a] | 150
59 | Cc1cccc2c1NC(=O)NS2(=O)=O [2b] | 144
60 | Cc1ccc2c(c1)S(=O)(=O)NC(=O)N2 [2c] | 872
61 | Cc1cc(C)c2c(c1)S(=O)(=O)NC(=O)N2 [2d] | 764
62 | Cc1ccc(C)c2c1NC(=O)NS2(=O)=O [2e] | 2190
63 | Cc1cc(C)c2c(c1)NC(=O)NS2(=O)=O [2f] | 2940
64 | O=C1Nc2ccc(F)cc2S(=O)(=O)N1 [2h] | 534
65 | O=C1Nc2ccc(C(=O)O)cc2S(=O)(=O)N1 [2s] | 6780
66 | O=C1Nc2ccc(O)cc2S(=O)(=O)N1 [2t] | 3020

biological target: MtCA3 (Mycobacterium tuberculosis, UniProt P96878); test: biochemical; details: ratio of Ki values
Sequence (P96878 550-764 limits assumed): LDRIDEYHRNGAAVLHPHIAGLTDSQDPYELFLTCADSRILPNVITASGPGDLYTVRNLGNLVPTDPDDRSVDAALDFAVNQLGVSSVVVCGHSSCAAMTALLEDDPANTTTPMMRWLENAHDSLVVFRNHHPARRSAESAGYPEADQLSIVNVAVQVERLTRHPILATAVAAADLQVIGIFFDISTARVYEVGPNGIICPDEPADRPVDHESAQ

Row | SMILES | Selectivity Index (SI) hCA II/MtCA3
67 | O=C1Nc2ccccc2S(=O)(=O)N1 [2a] | 5.2
68 | Cc1cccc2c1NC(=O)NS2(=O)=O [2b] | 6.8
69 | Cc1ccc2c(c1)S(=O)(=O)NC(=O)N2 [2c] | 47.1
70 | Cc1ccc(C)c2c1NC(=O)NS2(=O)=O [2e] | 1.4
71 | Cc1cc(C)c2c(c1)NC(=O)NS2(=O)=O [2f] | 1.3
72 | O=C1Nc2ccc(O)cc2S(=O)(=O)N1 [2t] | 66.3

same assay, conditions: stopped-flow CO2 hydrase assay, mean from three assays

Row | SMILES | Ki [nM]
73 | O=C1Nc2ccccc2S(=O)(=O)N1 [2a] | 28.7 ± 2.1
74 | Cc1cccc2c1NC(=O)NS2(=O)=O [2b] | 21.3 ± 1.7
75 | Cc1ccc2c(c1)S(=O)(=O)NC(=O)N2 [2c] | 18.5 ± 1.6
76 | Cc1cc(C)c2c(c1)S(=O)(=O)NC(=O)N2 [2d] | 15.1 ± 0.9
77 | Cc1ccc(C)c2c1NC(=O)NS2(=O)=O [2e] | 1540 ± 91
78 | Cc1cc(C)c2c(c1)NC(=O)NS2(=O)=O [2f] | 2250 ± 168
79 | O=C1Nc2ccc(C(=O)O)cc2S(=O)(=O)N1 [2s] | 101 ± 5
80 | O=C1Nc2ccc(O)cc2S(=O)(=O)N1 [2t] | 45.6 ± 3.5
